Assays:
ScFv FITC on CHO cells = experiment: Competition binding on CHO ScFv FITC-expressing cells; details: in the presence of 1 nM 111In-DTPA-FITC as tracer
Procedure: Wild-type or ScFv FITC-expressing cells were plated at 3×10^4 cells/well in 96-well plates one day before binding experiments. […] Cells were gently agitated for 45 minutes at rt and then washed three times 250 ul/well PBS at 4 degrees C. […] For competition experiments, competitor compounds were diluted in 50 ul/well of PBS, 0.1% BSA and added first to washed wells containing cells as above. […] Incubations, washes and counting were performed as above.

Wild-type CHO cells = experiment: FACS staining of wild-type CHO cells; type: binding
Procedure: (§1) Stable transfectants were isolated essentially as described (Mattheakis et al., 1999). All ScFv FITC expression constructs contain a neo resistance cassette. Primary G418-resistant populations were stained with mAb 179 labeled with fluorescein as follows. Antibody 179 was linked to fluorescein using fluorescein isothiocyanate (FITC, Molecular Probes, Eugene, Oreg.). This modified mAb 179 contained on average six fluoresceins per antibody molecule. Cells, ˜3-5×10^6, were resuspended in 500 μl of PBS, 0.1% BSA containing mAb 179-FITC at a final concentration of 8 μg/ml. Cells were rotated in the dark for 45 min, spun down, and subsequently resuspended in PBS and enrich sorted using a FACStar plus (Becton-Dickinson, San Jose, Calif.) based on the highest fluorescence. Enriched populations were cloned by limiting dilution and subsequently screened by ELISA. Briefly, 96well plates of clones were fixed with 200 μl per well of ice cold methanol for 10 min. Subsequent steps were done at room temperature (rt). Plates were blocked with PBS, 1% BSA for 30 min and then incubated with mAb 179, 1 μg/ml in PBS, 0.1% BSA for 1h. After 3 washes of 10 min each with PBS, wells were incubated with 1 μg/ml goat anti-mouse-HRP (Pierce, Rockford, Ill.) in PBS, 0.1% BSA for 1 h, washed with PBS three times as above, developed with a TMB peroxidase substrate colorometric assay ( Kirkegaard & Perry Laboratories, Gaithersburg, Md.) and the OD415 measured. Reactive clones were expanded, stained with mAb 179-fluorescein as above and analyzed using a FACScan (Becton-Dickinson, San Jose, Calif.) to choose those with the highest expression of the ScFv based on fluorescence. Clones were also analyzed by anti-179 Western blotting to verify the size of the ScFv protein expressed. ScFv-expressing clones were compared to wild-type CHO-K1 cells by FACScan using further reagents as follows in PBS, 0.1% BSA as above for mAb 179-fluorescein staining. FITC-BSA (Sigma, St. Louis, Mo.) was used at a final concentration of 20 μg/ml and DTPA-FITC and In-DTPA-FITC were each used at a final concentration of 2 μg/ml.

[1] = system: FITC ScFv expressed on CHO cells; experiment: FACS staining of CHO cells expressing FITC ScFv; type: binding
Procedure: as §1

Compound | IC50 (ScFv FITC on CHO cells) | Mean (fluorescence, FACS) (Wild-type CHO cells; marker A11) | Median (fluorescence, FACS) (Wild-type CHO cells; marker A11) | Mean (fluorescence, FACS) (Wild-type CHO cells; marker M1) | Median (fluorescence, FACS) (Wild-type CHO cells; marker M1) | Mean (fluorescence, FACS) ([1]; marker A11) | Median (fluorescence, FACS) ([1]; marker A11) | Mean (fluorescence, FACS) ([1]; marker M1) | Median (fluorescence, FACS) ([1]; marker M1)
O=C1OC2(c3ccccc31)c1cc(I)c(O)c(I)c1Oc1c2cc(I)c(O)c1I [erythrosine, reference compound] | 309 nM | – | – | – | – | – | – | – | –
Diethylenetriaminepenta-acetic acid (DTPA) coupled to fluorescein [DTPA-FITC] | 11.8 nM | 13.89 | 7.99 | 8.24 | 7.84 | 100.62 | 90.58 | 98.06 | 91.40
